Laboratory results taken from patent US20240246042A1, “METHOD FOR EMULSIFICATION USING IONIC FLUX” (Purdue Research Foundation, priority 2023, published 2024).
Like-named read-outs stand apart in the source and are kept apart here.

What was measured:
[1] = Gibbs free energy of ion transfer and ion transfer potentials across the water and DCE phase; format: physicochemical
Excerpt: The Gibbs free energy of ion transfer and the ion transfer potentials for relevant ions across the water and DCE phase were studied.

[2] = transfer from water to DCE; cited from earlier work
[3] = format: physicochemical; details: aqueous phase None; cathode in aqueous, anode in DCE (per FIG. 23C, 24D-F); 5 mA, 5 min
Description: E) The cathode was placed in an aqueous phase containing no phase-transfer agent, and the anode was placed in DCE containing 0.1 M [NBu4][Br]. F) The cathode was placed in an aqueous phase containing no phase-transfer agent, and the anode was placed in DCE containing 0.1 M [NHx][ClO4].
All experiments were performed using bi-phasic systems consisting of immiscible solutions, such as 1,2-dichloroethane and water. Before experimentation, a platinum wire (r=1 mm) was sealed within a cell while maintaining an electrical connection. […] A secondary platinum wire (r=1 mm) was then submerged into the aqueous top layer to complete the circuit and allow for current to flow. Upon submersion, a current was then applied across the system using DC power supply. Current was maintained at 5 mA for a total duration of 5 min. Solutions were allowed to rest for an additional 5 minutes before additional experimentation or measurement.
The droplet sizes were measured. In these measurements, the resulting top layer and bottom layer from the prior section were allowed to rest for 5 minutes and were then transferred to a 1 cm glass cuvette. After transfer, the cuvette was inserted into the DLS instrumentation and was allowed to perform dynamic light scatter measurements to determine the size and intensity of the droplets formed during electro-emulsification. […]

Row | SMILES | Δφw→DCE^0 (standard ion transfer potential) ([1]; transfer from water to DCE) [mV] | ΔGw→DCE^0 (standard Gibbs free energy of ion transfer) [2] [kcal/mol] | Δφw→DCE^0 (standard ion transfer potential) [1] [mV] | Average Size (d · nm) N = 3 [3] [nm] | Zeta Potential [3] [mV]
1 | [O-][Cl+3]([O-])([O-])O [ClO4^−] | −178 | 4.11 |  |  | 
2 | CCCC[N+](CCCC)(CCCC)CCCC [NBu4^+, tetrabutylammonium] | 226 |  |  |  | 
3 | CC[N+](CC)(CC)CC [NEt4^+, tetraethylammonium] |  |  | −44 |  | 
4 | F[P-](F)(F)(F)(F)F [PF6^−] | −90 | 2.08 |  |  | 
5 | CCCCCC[N+](CCCCCC)(CCCCCC)CCCCCC.[O-][Cl+3]([O-])([O-])[O-] [[NHx4][ClO4], tetrahexylammonium perchlorate] |  |  |  | 3477 | −6.031

Continued, in another order:

Row | Δφw→DCE^0 (standard ion transfer potential) ([1]; transfer from water to DCE) [mV] | SMILES | ΔGw→DCE^0 (standard Gibbs free energy of ion transfer) [2] [kcal/mol] | Δφw→DCE^0 (standard ion transfer potential) [1] [mV] | Average Size (d · nm) N = 3 [3] [nm] | Zeta Potential [3] [mV]
6 | −399 | Br [Br^−] | 9.2 |  |  | 
7 | −481 | Cl [Cl^−] | 11.1 |  |  | 
8 | −627 | [H+] [H^+] | 14.5 |  |  | 
9 | −548 | [K+] [K^+] | 12.6 |  |  | 
10 | −610 | [Na+] [Na^+] | 14.1 |  |  | 
